Experimental data taken from patent US20170298083A1, “NEW IMMUNOSTIMULATORY COMPOUNDS” (Bernhard-Nocht-Institut für Tropenmedizin, priority 2014, published 2017).

Experiments:
human NKT cells = test: human iNKT cell assay: intracellular cytokine production in whole PBMCs by FACS; type: cell-based; details: human PBMC, 15 h, 1 μg/ml αGalCer or 10 μg/ml purified EhLPPG, FIG. 1
[1] = liver toxicity: serum ALT after intraperitoneal injection; type: in vivo; details: C57BL/6 mice, four-time intraperitoneal injection; EhLPPG 1, 10, 25 and 50 μg/ml; αGalCer 0.1, 1 and 10 μg/ml
Leishmania major = test: in vitro Leishmania assay: infected bone marrow derived macrophages; details: for percentage of L. major infected macrophages / parasite load per macrophage: BMM, 48 h

Compound: CCCCCCCCCCCCCCCCCCCCCCCCCC(=O)N[C@@H](CO[C@H]1O[C@H](CO)[C@H](O)[C@H](O)[C@H]1O)[C@H](O)[C@H](O)CCCCCCCCCCCCCC [αGalCer, α-galactosylceramide]
- production of tumor necrosis factor (TNF) α and IL-17 in NKT cells (human NKT cells): led to the production of tumor necrosis factor (TNF) α and IL-17
- CD4+NKT cells positive for IFN-γ and IL-4 (human NKT cells; αCD28 co-stimulant): considerable amounts of CD4+NKT cells positive for IFN-γ and IL-4
- liver ALT enzyme level in serum [1]: significant increase in the ALT levels
- percentage of L. major infected macrophages (Leishmania major; spleen-derived lymphocytes co-incubated, FIG. 5B): significantly reduced
- parasite load per macrophage (Leishmania major; with addition of spleen cells, FIG. 5D): a significant reduction
- percentage of L. major infected macrophages (Leishmania major; without spleen cells, FIG. 5A): significantly reduced
- parasite load per macrophage (Leishmania major; without spleen cells, FIG. 5C): significantly reduced the amount of parasites within the macrophages
- expression of iNOS (Leishmania major; preliminary results, data not shown): increase in the expression of iNOS
